Results taken from patent US10780072B2, “Methods for inhibiting conversion of choline to trimethylamine (TMA)” (The Procter & Gamble Company, priority 2015, dated 2020).

Tested on: Proteus mirabilis 29906 (Pm) lysate
Assay: Inhibition of TMA formation from choline (d9-choline to d9-TMA) in Proteus mirabilis lysate, LC-MS/MS
Type: biochemical
Conditions: Pm lysate 1.5 mg/mL protein, 50 μM d9-choline chloride, 37° C. for two hours; read-out: TMA Inhibition (IC50, mol/L)

Compound | IC50 [µM]
Ethyl isothiocyanate [Compound 11] | 28.6
CSc1ccc(N=C=S)cc1 [Compound 4, 4-(Methylthio) phenyl isothiocyanate] | 73.4
S=C=NC1CCCCC1 [Compound 30, Cyclohexyl isothiocyanate] | 56.1
S=C=NCc1ccccc1 [Compound 5, Benzyl isothiocyanate] | 3.03
COc1ccc(OC)c(N=C=S)c1 [Compound 33, 2,5-Di-methoxy-phenyl isothiocyanate] | 152
S=C=NCCN1CCCCC1 [Compound 35, 2-Piperidino-ethyl isothiocyanate] | 14.3
CC(C)CN=C=S [Compound 12, Isobutyl isothiocyanate] | 74.5
COc1cccc(N=C=S)c1 [Compound 34, 3-Methoxy-phenyl isothiocyanate] | 88.3
S=C=Nc1ccc(Cl)cc1 [Compound 27, 4-Chloro-phenyl isothiocyanate] | 108
CCC(C)N=C=S (stereo not drawn) [Compound 10, sec-butyl isothiocyanate] | 129
COc1ccc(C)cc1N=C=S [Compound 1, 2-Methoxy-5-methylphenyl isothiocyanate] | 745
CC(C)CCN=C=S [Compound 16, 1-isothio-cyanato-3-methyl-butane] | 66.1
S=C=Nc1ccc(Br)cc1 [Compound 20, 4-Bromo-phenyl isothiocyanate] | 88.8
O=C(N=C=S)c1ccccc1 [Compound 21, Benzoyl isothiocyanate] | 196
CCC(C)CN=C=S (stereo not drawn) [Compound 44, Butane, 1-isothio-cyanato-2-methyl-] | 105
CCCCN=C=S [Compound 13, Butyl isothiocyanate] | 50.4
S=C=NCC1CCCCC1 [Compound 8, Cyclohexyl- methyl isothiocyanate] | 210
C[C@H](N=C=S)c1ccccc1 [Compound 26, (S)-(+)-alpha- Methylbenzyl isothiocyanate] | 20.9
Methyl isothiocyanate [Compound 14] | 20
CCCCCC12CCC(C(=O)Oc3ccc(N=C=S)cc3)(CC1)CC2 [Compound 37, 4-Isothio-cyanato-phenyl 4-pentyl-bicyclo [2.2.2] octane-1-carboxylate] | 48900
CC(C)(C)OC(=O)NCCCCN=C=S [Compound 22, N-Boc-4-isothio-cyanatobutyl-amine] | 65.2

Compound | IC50 [µM]
CC(=O)O[C@H]1[C@H](OC(C)=O)[C@@H](N=C=S)OC[C@H]1OC(C)=O [Compound 39, 2,3,4-Tri-O-acetyl-α-D-arabino-pyranosyl isothiocyanate] | 220
C[N+](C)(C)CCN=C=S [Compound 45, 2-Isothio-cyanato-N,N,N-trimethyl-ethana-minium iodide] | 1.28
CCOC(=O)CN=C=S [Compound 36, Ethyl isothio- cyanato- acetate] | 3.98
Cc1cccc(N=C=S)c1 [Compound 3, m-Tolyl isothiocyanate] | 248
CCc1ccc(N=C=S)cc1 [Compound 31, 4-Ethylphenyl isothiocyanate] | 383
S=C=NCCCN1CCOCC1 [Compound 24, 3-(4-Morpholino) propyl isothiocyanate] | 15.7
S=C=NCCN1CCOCC1 [Compound 25, 2-(4-Morpholino) ethyl isothiocyanate] | 13.4
S=C=Nc1ccccc1 [Compound 18, Phenyl isothiocyanate] | 120
CN(C)CCCN=C=S [Compound 41, 3-isothio-cyanato-N,N-dimethyl-1-Propanamine] | 11.5
CC(C)N=C=S [Compound 15, Isopropyl isothiocyanat] | 98.2
CN(C)CCN=C=S [Compound 42, 2-Isothio-cyanato-N,N-dimethyl-ethanamine] | 7.67
CCCCCN=C=S [Compound 6, 1-pentyl isothiocyanate] | 41.4
CCN(CC)CCN=C=S [Compound 40, Ethanamine, N,N-diethyl-2-isothio-cyanato] | 8.81
CC(C)(C)N=C=S [Compound 2, tert-Butyl isothiocyanate] | 5480
S=C=Nc1cccc2ccccc12 [Compound 19, 1-Naphthyl isothiocyanate] | 2080
S=C=NC1CC2CCC1C2 (stereo not drawn) [Compound 29, exo-2-Norbornyl-isothiocyanate] | 48.2
CCN(CC)CCCN=C=S [Compound 7, 3-(Diethyl-amino) propyl isothiocyanate] | 1.56
S=C=NCCc1ccc(Cl)cc1 [Compound 9, 2-(4-Chloro-phenethyl) isothiocyanate] | 30
S=C=NC(c1ccccc1)c1ccccc1 [Compound 38, Benzhydryl isothiocyanate] | 1560
COc1ccccc1N=C=S [Compound 32, 2-Methoxy-phenyl isothiocyanate] | 188
CC(C)(C)OC(=O)Nc1ccc(N=C=S)cc1 [Compound 23, N-Boc-4-isothio-cyanatoaniline] | 2530
